Experimental data reported in PubChem BioAssay AID2060607 (Molecular Pharmacology Branch, DTP, NCI, 2025).
Where “and” joins values, the source holds several entries; their conditions need not be identical. Identical values can stand only once.

Tested on: 876862-298-R-J1-PDC complex spheroids, viability % test/control
Experiment: Anticancer human tumor 876862-298-R-J1-PDC patient-derived endometrial carcinoma cell line growth inhibition [CLK]
Conditions: for viability, T/C: stronger effect = lower value
Procedure, shortened: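 Multi-cell-type spheroids combined patient-derived tumor cells with HUVEC endothelial cells and human mesenchymal stem cells. Paired agents were dosed in half-log steps down from about clinical Cmax, or from 10 microM where Cmax was unknown.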

[1] = curve of first compound, second compound 0.0316 µM
[2] = curve of first compound, second compound 0.1 µM
[3] = curve of first compound, second compound 0.316 µM
[4] = curve of first compound, second compound 1 µM
[5] = curve of first compound, second compound 3.16 µM
[6] = curve of first compound, second compound 10 µM
[7] = second compound 0.0316 µM, first compound 0.0316 µM
[8] = second compound 0.0316 µM, first compound 0.1 µM
[9] = second compound 0.0316 µM, first compound 0.316 µM
[10] = second compound 0.0316 µM, first compound 1 µM
[11] = second compound 0.0316 µM, first compound 3.16 µM
[12] = second compound 0.0316 µM, first compound 10 µM
[13] = second compound 0.1 µM, first compound 0.0316 µM
[14] = second compound 0.1 µM, first compound 0.1 µM
[15] = second compound 0.1 µM, first compound 0.316 µM
[16] = second compound 0.1 µM, first compound 1 µM
[17] = second compound 0.1 µM, first compound 3.16 µM
[18] = second compound 0.1 µM, first compound 10 µM
[19] = second compound 0.316 µM, first compound 0.0316 µM
[20] = second compound 0.316 µM, first compound 0.1 µM
[21] = second compound 0.316 µM, first compound 0.316 µM
[22] = second compound 0.316 µM, first compound 1 µM
[23] = second compound 0.316 µM, first compound 3.16 µM
[24] = second compound 0.316 µM, first compound 10 µM
[25] = second compound 1 µM, first compound 0.0316 µM
[26] = second compound 1 µM, first compound 0.1 µM
[27] = second compound 1 µM, first compound 0.316 µM
[28] = second compound 1 µM, first compound 1 µM
[29] = second compound 1 µM, first compound 3.16 µM
[30] = second compound 1 µM, first compound 10 µM
[31] = second compound 3.16 µM, first compound 0.0316 µM
[32] = second compound 3.16 µM, first compound 0.1 µM
[33] = second compound 3.16 µM, first compound 0.316 µM
[34] = second compound 3.16 µM, first compound 1 µM
[35] = second compound 3.16 µM, first compound 3.16 µM
[36] = second compound 3.16 µM, first compound 10 µM
[37] = second compound 10 µM, first compound 0.0316 µM
[38] = second compound 10 µM, first compound 0.1 µM
[39] = second compound 10 µM, first compound 0.316 µM
[40] = second compound 10 µM, first compound 1 µM
[41] = second compound 10 µM, first compound 3.16 µM
[42] = second compound 10 µM, first compound 10 µM
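Also: spheroids exposed to drugs for 7 days before readout.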
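For viability, T/C in this document: 100% = DMSO vehicle control wells.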

## COc1cccc2c1C(=O)c1c(O)c3c(c(O)c1C2=O)CC(O)(C(=O)CO)CC3OC1CC(N)C(O)C(C)O1 (stereo not given) + CNC(=O)c1ccc(Nc2nc(OC3CCCC3)c3c(-c4ccc5nc(C)oc5c4)c[nH]c3n2)c(OC)c1
[1]
  IC50: < 0.0316 µM
[2]
  IC50: < 0.0316 µM
[3]
  IC50: < 0.0316 µM
[4]
  IC50: < 0.0316 µM
[5]
  IC50: < 0.0316 µM
[6]
  IC50: < 0.0316 µM
[7]
  viability, T/C: 27.4%
[8]
  viability, T/C: 11.2%
[9]
  viability, T/C: 6.58%
[10]
  viability, T/C: 5.25%
[11]
  viability, T/C: 0.7%
[12]
  viability, T/C: 4.06%
[13]
  viability, T/C: 22.3%
[14]
  viability, T/C: 10.5%
[15]
  viability, T/C: 6.67%
[16]
  viability, T/C: 4.08%
[17]
  viability, T/C: 0.67%
[18]
  viability, T/C: 3.82%
[19]
  viability, T/C: 21.7%
[20]
  viability, T/C: 7.88%
[21]
  viability, T/C: 5.6%
[22]
  viability, T/C: 2.96%
[23]
  viability, T/C: 0.81%
[24]
  viability, T/C: 4.75%
[25]
  viability, T/C: 15.3%
[26]
  viability, T/C: 5.96%
[27]
  viability, T/C: 4.62%
[28]
  viability, T/C: 2.24%
[29]
  viability, T/C: 1.51%
[30]
  viability, T/C: 5.96%
[31]
  viability, T/C: 13%
[32]
  viability, T/C: 6.62%
[33]
  viability, T/C: 3.35%
[34]
  viability, T/C: 1.57%
[35]
  viability, T/C: 1.6%
[36]
  viability, T/C: 6.55%
[37]
  viability, T/C: 12.1%
[38]
  viability, T/C: 5.47%
[39]
  viability, T/C: 3.35%
[40]
  viability, T/C: 1.56%
[41]
  viability, T/C: 2.15%
[42]
  viability, T/C: 7.11%

## CCc1c2c(nc3ccc(O)cc13)-c1cc3c(c(=O)n1C2)COC(=O)[C@]3(O)CC
Compound 0.00316 µM
  viability, T/C: 48% and 36.5%
Compound 0.01 µM
  viability, T/C: 9.1% and 7.37%
Compound 0.0316 µM
  viability, T/C: 6.83% and 6.05%
Compound 0.1 µM
  viability, T/C: 5.12% and 5.99%
Compound 0.316 µM
  viability, T/C: 3.64% and 4.64%
Compound 1 µM
  viability, T/C: 2.58% and 4.7%
Curve of compound
  IC50: < 0.00316 µM

## Nc1ccccc1NC(=O)c1ccc(CNC(=O)OCc2cccnc2)cc1 + CNC(=O)c1ccc(Nc2nc(OC3CCCC3)c3c(-c4ccc5nc(C)oc5c4)c[nH]c3n2)c(OC)c1
[1]
  IC50: 3.67 µM
[2]
  IC50: 1.07 µM
[3]
  IC50: < 0.0316 µM
[4]
  IC50: < 0.0316 µM
[5]
  IC50: < 0.0316 µM
[6]
  IC50: < 0.0316 µM
[7]
  viability, T/C: 71.4%
[8]
  viability, T/C: 88.4%
[9]
  viability, T/C: 82.8%
[10]
  viability, T/C: 80.6%
[11]
  viability, T/C: 53.1%
[12]
  viability, T/C: 29.2%
[13]
  viability, T/C: 46.3%
[14]
  viability, T/C: 45.3%
[15]
  viability, T/C: 62.3%
[16]
  viability, T/C: 50.2%
[17]
  viability, T/C: 39.4%
[18]
  viability, T/C: 24.9%
[19]
  viability, T/C: 41.2%
[20]
  viability, T/C: 43.8%
[21]
  viability, T/C: 44.7%
[22]
  viability, T/C: 40.9%
[23]
  viability, T/C: 27.3%
[24]
  viability, T/C: 16.9%
[25]
  viability, T/C: 33.4%
[26]
  viability, T/C: 31.7%
[27]
  viability, T/C: 32.5%
[28]
  viability, T/C: 27.1%
[29]
  viability, T/C: 15.7%
[30]
  viability, T/C: 9.26%
[31]
  viability, T/C: 25%
[32]
  viability, T/C: 22.5%
[33]
  viability, T/C: 22.5%
[34]
  viability, T/C: 16.1%
[35]
  viability, T/C: 12.1%
[36]
  viability, T/C: 2.17%
[37]
  viability, T/C: 21%
[38]
  viability, T/C: 22.2%
[39]
  viability, T/C: 16.6%
[40]
  viability, T/C: 15.7%
[41]
  viability, T/C: 10%
[42]
  viability, T/C: 0.74%

## O=c1[nH]cc(F)c(=O)[nH]1 + CNC(=O)c1ccc(Nc2nc(OC3CCCC3)c3c(-c4ccc5nc(C)oc5c4)c[nH]c3n2)c(OC)c1
[1]
  IC50: > 10 µM
[2]
  IC50: < 0.0316 µM
[3]
  IC50: < 0.0316 µM
[4]
  IC50: < 0.0316 µM
[5]
  IC50: < 0.0316 µM
[6]
  IC50: < 0.0316 µM
[7]
  viability, T/C: 68.7%
[8]
  viability, T/C: 84.1%
[9]
  viability, T/C: 81.4%
[10]
  viability, T/C: 94.6%
[11]
  viability, T/C: 57.9%
[12]
  viability, T/C: 49.6%
[13]
  viability, T/C: 46.7%
[14]
  viability, T/C: 49.5%
[15]
  viability, T/C: 49.2%
[16]
  viability, T/C: 45%
[17]
  viability, T/C: 45.3%
[18]
  viability, T/C: 41.6%
[19]
  viability, T/C: 49.7%
[20]
  viability, T/C: 42%
[21]
  viability, T/C: 41.9%
[22]
  viability, T/C: 40.5%
[23]
  viability, T/C: 40.1%
[24]
  viability, T/C: 38.5%
[25]
  viability, T/C: 31.5%
[26]
  viability, T/C: 32.2%
[27]
  viability, T/C: 32.5%
[28]
  viability, T/C: 31.1%
[29]
  viability, T/C: 24%
[30]
  viability, T/C: 24.7%
[31]
  viability, T/C: 25%
[32]
  viability, T/C: 25.9%
[33]
  viability, T/C: 22.9%
[34]
  viability, T/C: 19.9%
[35]
  viability, T/C: 18%
[36]
  viability, T/C: 14.2%
[37]
  viability, T/C: 20.3%
[38]
  viability, T/C: 21.2%
[39]
  viability, T/C: 20.1%
[40]
  viability, T/C: 21.6%
[41]
  viability, T/C: 17.6%
[42]
  viability, T/C: 13.6%

## CC1COCCN1c1cc(C2(S(C)(=N)=O)CC2)nc(-c2ccnc3[nH]ccc23)n1 (stereo not given) + CN1CCN(c2cc(C(=O)Nc3cc4cc(-c5cnn(C)c5)ccc4cn3)ccn2)CC1
[1]
  IC50: 2.1 µM
[2]
  IC50: < 0.0316 µM
[3]
  IC50: < 0.0316 µM
[4]
  IC50: < 0.0316 µM
[5]
  IC50: < 0.0316 µM
[6]
  IC50: < 0.0316 µM
[7]
  viability, T/C: 89.1%
[8]
  viability, T/C: 87.5%
[9]
  viability, T/C: 76.5%
[10]
  viability, T/C: 62.1%
[11]
  viability, T/C: 43.6%
[12]
  viability, T/C: 17.9%
[13]
  viability, T/C: 45.1%
[14]
  viability, T/C: 51.9%
[15]
  viability, T/C: 38.9%
[16]
  viability, T/C: 33.6%
[17]
  viability, T/C: 18.4%
[18]
  viability, T/C: 7.47%
[19]
  viability, T/C: 2.43%
[20]
  viability, T/C: 2.03%
[21]
  viability, T/C: 2.19%
[22]
  viability, T/C: 2.32%
[23]
  viability, T/C: 2.12%
[24]
  viability, T/C: 1.33%
[25]
  viability, T/C: 0.64%
[26]
  viability, T/C: 0.83%
[27]
  viability, T/C: 0.8%
[28]
  viability, T/C: 0.51%
[29]
  viability, T/C: 0.47%
[30]
  viability, T/C: 0.27%
[31]
  viability, T/C: 0.98%
[32]
  viability, T/C: 1.82%
[33]
  viability, T/C: 0.92%
[34]
  viability, T/C: 0.81%
[35]
  viability, T/C: 0.61%
[36]
  viability, T/C: 0.4%
[37]
  viability, T/C: 0.94%
[38]
  viability, T/C: 0.66%
[39]
  viability, T/C: 1.4%
[40]
  viability, T/C: 0.63%
[41]
  viability, T/C: 0.59%
[42]
  viability, T/C: 0.74%
